Source: article PMC8591608, “DNDI-6148: A Novel Benzoxaborole Preclinical Candidate for the Treatment of Visceral Leishmaniasis” (Journal of Medicinal Chemistry, 2021)
Read-outs that look alike come from different tables or passages of the source.

Columns and labels:
[1] = system: L. infantum; test: Intramacrophage L. infantum assay; type: cell-based; settings: Leishmania infantum
Protocol: (§1) L. infantum (MHOM/MA/67/ITMAP263) and L. donovani (MHOM/ET/67/L82) were maintained in the golden (Syrian) hamster (Mesocricetus auratus). Ex vivo amastigotes were collected from the spleen of an infected donor hamster using two centrifugation purification steps: 230g for 10 min, keeping the supernatant layer, and 4100g for 30 min, keeping the pellet. The spleen parasite burden was assessed using the Stauber technique.[25] For in vitro assays, the inoculum was prepared in RPMI-1640 medium, supplemented with 200 mM L-glutamine, 16.5 mM NaHCO3, and 5% inactivated fetal calf serum. For the in vivo model, an infection inoculum containing 2 × 10^7 amastigotes/100 μL was prepared in phosphate-buffered saline (PBS).
(§2) The assay was performed in sterile 96-well microtiter plates, each well containing 10 μL of the compound dilution and 190 μL of the PMM/amastigote inoculum (3 × 10^4 cells/4.5 × 10^5 parasites per well). Parasite multiplication was compared to untreated infected controls (100% growth) and uninfected controls (0% growth). After five-day incubation, total parasite burdens were microscopically assessed after staining the cells with a 10% Giemsa solution. The results were expressed as a percentage reduction in parasite burden compared to untreated control wells. EC50 values were determined using an extended dose range (2-fold compound dilutions, 8-point concentration curve). Miltefosine was used as the reference drug.[26] For selected compounds, this assay format was also run using the L. donovani inoculum.

[2] = system: L. donovani; test: Intramacrophage L. donovani assay; type: cell-based; settings: for EC50: Leishmania donovani
Protocol: as §1, §2

[3] = PMM cytotoxicity assay; type: cell-based; settings: mouse, primary peritoneal mouse macrophages (PMM); for CC50 at 72 h / CC50 at 3 days: geometric mean of at least two independent tests
Protocol: (§3) Primary peritoneal mouse macrophages (PMM) were collected two days after peritoneal stimulation with a 2% potato starch suspension. MRC5SV2 cells (diploid human embryonic lung fibroblasts) were cultured in minimal essential medium (MEM) containing Earle’s salts, supplemented with L-glutamine, NaHCO3, and 5% inactivated fetal calf serum. All cultures and assays were conducted at 37 °C under an atmosphere of 5% CO2.
(§4) Assays were performed in sterile 96-well microtiter plates, each well containing 10 μL of the compound dilution and 190 μL of MRC5SV2 or PMM inoculum (3 × 10^4 cells/mL). Cell growth was compared to untreated controls (100% growth) and assay-media controls (0% growth). After three-day incubation, cell viability was assessed fluorometrically by adding resazurin (50 μL/well of a stock solution in phosphate buffer (50 μg/mL)), incubating for 4 h and measuring fluorescence (λex 550 nm, λem 590 nm). The results were expressed as a percentage reduction in cell growth compared to untreated control wells. […] Tamoxifen was included as the reference drug.

[4] = MRC5 cytotoxicity assay; type: cell-based; settings: human, MRC5SV2 cells (human embryonic lung fibroblasts), geometric mean of at least two independent tests
Protocol: as §3, §4

[5] = Liver microsome stability, human; type: in vitro ADME; settings: human liver microsomes
Protocol: (§5) Tests were performed by WuXi AppTec, China. Test compounds (at 1 μM) or positive controls (testosterone, propafenone, and diclofenac) were incubated at 37 °C with liver microsomes from Balb/c mouse, golden (Syrian) hamster, Sprague-Dawley rat, Beagle dog, or human in the presence of a NADPH regenerating system and phosphate buffer (100 mM, pH 7.4) at 0.4 or 0.8 mg/mL microsomal protein. The samples were removed at time intervals from 0 to 60, 90, or 120 min and immediately mixed with cold methanol supplemented or not with acid (3% formic acid) and centrifuged prior to analysis by LC-MS/MS using tolbutamide or propranolol as internal standards.

[6] = Liver microsome stability, hamster; type: in vitro ADME; settings: golden (Syrian), hamster liver microsomes
Protocol: as §5

[7] = system: L. infantum; test: L. infantum hamster model of VL; type: in vivo
Protocol: as §1
Female golden hamsters for the in vivo model of visceral leishmaniasis were purchased from Janvier, France (body weight 80–100 g). This study using laboratory rodents was carried out in strict accordance with all mandatory guidelines (EU directives, including the Revised Directive 2010/63/EU on the protection of Animals used for Scientific Purposes that came into force on 01/01/2013, and the declaration of Helsinki in its latest version) and was approved by the ethical committee of the University of Antwerp, Belgium (UA-ECD 2011-74). Female golden hamsters for the pharmacokinetic study were purchased from Vital River, Beijing, China. This study was conducted following institutional review and in accordance with institutional and national guidelines at WuXi AppTec (the Institutional Animal Care and Use Committee (IACUC)). Balb/c mice for the in vivo model of visceral leishmaniasis (LSHTM) were purchased from Charles River, U.K., and related studies were conducted under license PPL 70/8427 from the U.K. Home Office.
Female golden hamsters were randomly allocated to experimental groups of six animals each, based on body weight. At the start of the experiment (Day 0), each animal was infected with L. infantum or L. donovani inoculum, delivered by intracardial injection. Six hamsters were assigned to the vehicle-treated, infected control group. Six hamsters were assigned per group (1 group/compound) for the evaluation of compound and miltefosine. […] At Day 35 (10 days after the final oral dose), all animals were euthanized and autopsies were conducted. The study evaluated the following parameters. • 1. Adverse effects: all animals were observed daily for the occurrence/presence of adverse effects. • 2. Body weight: all animals were weighed twice per week to monitor general health. • 3. Parasite burden: amastigote burdens in each target organ (liver, spleen, and bone marrow) were determined at Day 35. The organs of individual animals were weighed (except for bone marrow). Impression smears were stained with Giemsa for microscopic examination of the total amastigote burden, defined as the mean number of amastigotes per cell multiplied by the number of cells counted (minimum 500 nuclei); the results were expressed as a percentage reduction in amastigote burden compared to vehicle-treated, infected control animals.

[8] = Hamster oral pharmacokinetic study; type: in vivo, golden Syrian hamsters; settings: female, golden Syrian, plasma
Protocol: […] The K2-EDTA anticoagulant was added to blood samples collected from 0.25 to 36 h, which were processed to plasma and stabilized with phosphoric acid (1% final) before analysis by LC-MS/MS. PK parameters were calculated using WinNonlin software (version 6.3).

[9] = Table 4, geometric mean of at least two independent tests, read-out: intramacrophage L. infantum EC50
[10] = Table 6, geometric mean of at least two independent tests
[11] = pH 7.4, Table 4, read-out: HLM Clint
[12] = pH 7.4, Table 4, read-out: HamLM Clint
[13] = single p.o. dose 50 mg/kg, read-out: AUC0–24 after single p.o. dose of 50 mg/kg
[14] = Table 5, geometric mean of at least two independent tests, read-out: intramacrophage L. infantum amastigote EC50
[15] = pH 7.4, Table 5, read-out: HLM Clint
[16] = pH 7.4, Table 5, read-out: HamLM Clint
[17] = Table 2, geometric mean of at least three independent assays

Row | Compound | EC50 [1, 9] [nM] | EC50 [2, 10] [µM] | microsomal CLint at 1 μM [5, 11] [µL/min/mg] | microsomal CLint at 2 h, 1 µM [6, 12] [µL/min/mg] | AUC(0-t) [8, 13] [ng·h/mL] | EC50 [1, 14] [nM] | microsomal CLint at 1 μM [5, 15] [µL/min/mg] | microsomal CLint at 2 h, 1 µM [6, 16] [µL/min/mg] | CC50 at 72 h ([3]; Table 4) [µM] | CC50 at 3 days ([3]; Table 6) [µM] | CC50 at 3 days ([4]; Table 4) [µM] | reduction in parasite burden, bone marrow, 5 days ([7]; 25 mg/kg BID p.o. for 5 days) [%] | reduction in parasite burden, liver, 5 days ([7]; 25 mg/kg BID p.o. for 5 days) [%] | reduction in parasite burden, spleen, 5 days ([7]; 25 mg/kg BID p.o. for 5 days) [%] | reduction in parasite burden, bone marrow, 5 days ([7]; 50 mg/kg BID p.o. for 5 days) [%] | reduction in parasite burden, liver, 5 days ([7]; 50 mg/kg BID p.o. for 5 days) [%] | reduction in parasite burden, spleen, 5 days ([7]; 50 mg/kg BID p.o. for 5 days) [%] | CC50 at 72 h ([3]; Table 5) [µM] | CC50 at 72 h ([4]; Table 5) [µM] | further results
1 | O=C(Nc1ccc2c(c1)B(O)OC2)c1cn(CC(F)(F)F)nc1C(F)(F)F [Compound 5, N-(1-Hydroxy-1,3-dihydrobenzo[c][1,2]oxaborol-6-yl)-1-(2,2,2-trifluoroethyl)-3-(trifluoromethyl)-1H-pyrazole-4-carboxamide] | 1600 | 1 | < 11.9 | 41 | 21000 | – | – | – | 50 | 53.8 | > 64 | 77.0 | 89.7 | 90.0 | 98.0 | 99.7 | 99.2 | – | – | –
2 | CCCCCCCCCCCCCCCCOP(=O)([O-])OCC[N+](C)(C)C [miltefosine, reference compound] | – | – | – | – | – | – | – | – | 33 | – | > 64 | – | – | – | – | – | – | – | – | EC50 ([1]; Table 2, geometric mean of at least three independent assays, read-out: intramacrophage L. infantum EC50): 10000 nM; EC50 [2, 17]: 10 µM; EC50 at 3 days [3, 17]: 33 µM

The next lines start with results.

Row | EC50 [1, 9] [nM] | EC50 [2, 10] [µM] | microsomal CLint at 1 μM [5, 11] [µL/min/mg] | microsomal CLint at 2 h, 1 µM [6, 12] [µL/min/mg] | AUC(0-t) [8, 13] [ng·h/mL] | EC50 [1, 14] [nM] | microsomal CLint at 1 μM [5, 15] [µL/min/mg] | microsomal CLint at 2 h, 1 µM [6, 16] [µL/min/mg] | Compound | CC50 at 72 h ([3]; Table 4) [µM] | CC50 at 3 days ([3]; Table 6) [µM] | CC50 at 3 days ([4]; Table 4) [µM] | reduction in parasite burden, bone marrow, 5 days ([7]; 25 mg/kg BID p.o. for 5 days) [%] | reduction in parasite burden, liver, 5 days ([7]; 25 mg/kg BID p.o. for 5 days) [%] | reduction in parasite burden, spleen, 5 days ([7]; 25 mg/kg BID p.o. for 5 days) [%] | reduction in parasite burden, bone marrow, 5 days ([7]; 50 mg/kg BID p.o. for 5 days) [%] | reduction in parasite burden, liver, 5 days ([7]; 50 mg/kg BID p.o. for 5 days) [%] | reduction in parasite burden, spleen, 5 days ([7]; 50 mg/kg BID p.o. for 5 days) [%] | CC50 at 72 h ([3]; Table 5) [µM] | CC50 at 72 h ([4]; Table 5) [µM] | further results
3 | 3100 | 1.2 | < 11.9 | 57 | – | – | – | – | Cc1c(C(=O)Nc2ccc3c(c2)B(O)OC3)cnn1-c1ccccn1 [Compound 16, N-(1-Hydroxy-1,3-dihydrobenzo[c][1,2]oxaborol-6-yl)-5-methyl-1-(pyridin-2-yl)-1H-pyrazole-4-carboxamide] | 59 | > 64 | – | 72.2 | 87.8 | 87.7 | 95.1 | 99.6 | 98.5 | – | – | CC50 at 72 h ([4]; Table 4): 61 µM; CC50 at 3 days ([4]; Table 6): 61.1 µM; AUC(0-t) ([8]; study run using a single 25 mg/kg p.o. dose, read-out: AUC0–24 after single p.o. dose): 7900 ng·h/mL
4 | – | – | – | – | – | 1700 | < 11.9 | 82 | Cc1oc(C(=O)Nc2ccc3c(c2)B(O)OC3)cc1-c1ccccn1 [Compound 29, N-(1-Hydroxy-1,3-dihydrobenzo[c][1,2]oxaborol-6-yl)-5-methyl-4-(pyridin-2-yl)furan-2-carboxamide] | – | – | – | – | – | – | – | – | – | 29 | 45 | –
5 | – | – | – | – | – | 600 | < 11.9 | 88 | Cc1c(-c2ccccn2)csc1C(=O)Nc1ccc2c(c1)B(O)OC2 [Compound 30, N-(1-Hydroxy-1,3-dihydrobenzo[c][1,2]oxaborol-6-yl)-3-methyl-4-(pyridin-2-yl)thiophene-2-carboxamide] | – | – | – | – | – | – | – | – | – | 32 | 2.3 | –
6 | – | 9.4 | – | – | 21000 | 2000 | – | 12 | O=C(Nc1ccc2c(c1)B(O)OC2)c1nnc(-c2ccccn2)o1 [Compound 31, N-(1-Hydroxy-1,3-dihydrobenzo[c][1,2]oxaborol-6-yl)-5-(pyridin-2-yl)-1,3,4-oxadiazole-2-carboxamide] | – | – | – | 55.0 | 67.3 | 69.0 | 99.7 | 99.4 | 99.4 | – | – | fold weaker against L. donovani compared with L. infantum potency ([2]; intramacrophage potency): about 5 fold; CC50 at 3 days ([3]; Table 5): > 64 µM; CC50 at 3 days ([4]; Table 5): > 64 µM; microsomal CLint at 2 h, 1 µM [5, 15]: 19 µL/min/mg
